Patent publication US11357778B2, “Antagonist of the fibroblast growth factor receptor 3 (FGFR3) for use in the treatment or the prevention of skeletal disorders linked with abnormal activation of FGFR3” (INSTITUT NATIONAL DE LA SANTE ET DE LE RECHERCHE MEDICALE …, priority 2011, dated 2022)

What was measured:
Fgfr3^Y367C/+ femurs = experiment: Ex vivo culture of E16.5 embryonic femur explants, bone length; type: cell-based, mouse
Experimental: (§1) Six sets of ex vivo experiments were performed. Femur embryos at day E16.5 from WT (n=6) and Fgfr3^Y367C/+ (n=6) mice were used and incubated for 5 days in DMEM medium with antibiotics and 0.2% BSA (Sigma) supplemented with A31 or PD173074 (as control) at a concentration of 2 mM. Right femur was cultured in supplemented medium and compared with the left one cultured in control medium. Rib cage from E16.5 WT and Fgfr3^Y367C/+ mice embryos were isolated and stripped of all soft tissues. Primary chondrocytes were obtained from rib cages. The ribs were incubated in a pronase solution (Roche; 2 mg/ml) followed by a digestion in Collagenase A (Roche; 3 mg/ml) at 37° C. Isolated chondrocytes were plated out at a density of 2.105 cells in 6-well plates containing DMEM supplemented with 10% FCS and antibiotics, and were allowed to reach subconfluency. Cultures were supplemented with A31 or PD173074 (as control) at a concentration of 2 mM. Cells were treated with A31 (2 mM) PD173074 (as control) in serum-free DMEM supplemented with 0.2% BSA and harvested after 24 h. To establish the effect of the inhibitors, the right femur was cultured in supplemented medium and compared with the left one cultured in control medium The bone length was measured at the beginning (before treatment) and at the end of time course. Each experiment was repeated at least three times. The genotype of WT, Fgfr3^Y367C/+ and Fgfr3^−/− mice were determined by PCR of tail DNA as previously described (Pannier et al., Biochim Biophys Acta, 1792: 140-147, 2009). All experimental procedures and protocols were approved by the Animal Care and Use Committee.
Fgfr3^Y367C/+ mice display reduced length of long bones, broad femurs, a narrow trunk, short ribs and a slightly dome-shaped skull, closely resembling achondroplasia (FIGS. 3A and B). The inventors analyzed the effects of A31 on endochondral ossification in Fgfr3^Y367C/+ mice by using an ex vivo culture system for embryonic day 16.5 (E16.5) limb explants. […] After 5 days of culture, the increase in length of the treated mutant femurs was 2.6 times more than for that of WT.
Thus, embryonic femur explants were co-incubated with 150 nM of PD173074 for 5 days.
Embryonic femur explants were co-incubated 100 nM (10^−7M) or 1 μM (10^−6M) of BGJ-398 for 6 days.

WT femurs = experiment: Ex vivo culture of E16.5 embryonic femur explants, bone length, wild type; type: cell-based, mouse; conditions: A31 2 mM, 5 days of culture
Experimental: as §1, with “Cells were treated with A31 (2 mM) PD173074 (as control) in serum-free DMEM supplemented with 0.2% BSA and harvested after 24 h.” left out, “Each experiment was repeated at least three times.” left out, “All experimental procedures and protocols were approved by the Animal Care and Use Committee.” left out

[1] = test system: Fgfr3^Y367C/+ growth plate; experiment: Histology of cultured femur growth plate (HES staining, type X collagen in situ hybridization); type: cell-based, mouse
Experimental: Limb explants were fixed after culture in 4% paraformaldehyde at 4° C., and placed in a staining solution for 45-60 minutes (0.05% Alizarin Red, 0.015% Alcian Blue, 5% acetic acid in 70% ethanol) or embedded in paraffin. Serial […] were stained with Hematoxylin-Eosin using standard protocols for histological analysis or were subjected to in situ hybridization or immunohistochemical staining. In situ hybridization using [S35]-UTP labeled antisense ribopropes for collagen X was carried out as previously described (Delezoide et al., Hum Mol Genet, 6, 1899-1906, 1997). Sections were counterstained with Hematoxylin. For immunohistochemistry, sections were stained with antibodies specific to FGFR3 (1:250 dilution; Sigma), anti PCNA (1:1000 dilution; Abcam), anti-KI67 (1:300; Abcam), anti-cyclin D1 (1:80 dilution; Santa Cruz) and anti-p57 (1:100 dilution; Santa Cruz) using the Dako Envision kit. Images were captured with an Olympus PD70-IX2-UCB microscope. […] The inventors evaluated the impact of A31 on the growth plate (FIG. 4A). […] Histological examinations using HES staining (FIG. 10A) and type X collagen labeling (FIG. 10B) were also carried out.

[2] = test system: Fgfr3^Y367C/+ mouse growth plates; experiment: Proliferation markers and cell cycle regulators in growth plates (immunohistochemistry, PCNA quantification); type: cell-based
Experimental: In situ hybridization using [S35]-UTP labeled antisense ribopropes for collagen X was carried out as previously described (Delezoide et al., Hum Mol Genet, 6, 1899-1906, 1997). Sections were counterstained with Hematoxylin. For immunohistochemistry, sections were stained with antibodies specific to FGFR3 (1:250 dilution; Sigma), anti PCNA (1:1000 dilution; Abcam), anti-KI67 (1:300; Abcam), anti-cyclin D1 (1:80 dilution; Santa Cruz) and anti-p57 (1:100 dilution; Santa Cruz) using the Dako Envision kit. Images were captured with an Olympus PD70-IX2-UCB microscope.
Three observers counted PCNA-positive and negative chondrocytes in proliferative […], prehypertrophic (PH) and hypertrophic (H) zones of the growth plate. A Student's t-test was used to compare treated (A31) and untreated femurs. Imagine software cellSens (Olympus) was used for counting cells. A p-value<0.05 is considered significant.
The inventors noted a higher expression of PCNA than KI67 in the mutant growth plate. Furthermore, the inventors investigated whether the presence of mutated Fgfr3 caused an impairment of expression of cell cycle regulators. In fact, activated Fgfr3 induced a significant overexpression of cyclin D1 in the proliferative and PH chondrocytes of Fgfr3^Y367C/+ mice. […] The inventors further analyzed the level of CDK inhibitors (CDKIs) negatively regulating the cell cycle, particularly p57, a member of the Cip/Kip family. Activated Fgfr3 induced a higher expression of p57 predominantly in late proliferative and PH chondrocytes. […] The inventors conclude that activated FGFR3 leads to over-expression of markers of proliferation (PCNA, KI67) and cell cycle regulators (cyclin D1 and p57) particularly in the prehypertrophic zone.

cyclin D1 = experiment: Cyclin D1 immunoblot in costal primary chondrocytes from E16.5 ribs; type: cell-based, mouse; conditions: A31-treated murine chondrocytes vs untreated
Experimental: as §1, with “Isolated chondrocytes were plated out at a density of 2.105 cells in 6-well plates containing DMEM supplemented with 10% FCS and antibiotics, and were allowed to reach subconfluency. Cultures were supplemented with A31 or PD173074 (as control) at a concentration of 2 mM. Cells were treated with A31 (2 mM) PD173074 (as control) in serum-free DMEM supplemented with 0.2% BSA and harvested after 24 h.” left out, “Each experiment was repeated at least three times.” left out, “All experimental procedures and protocols were approved by the Animal Care and Use Committee.” left out
Immunoprecipitation were performed by incubating […] rabbit anti-FGFR3 (Sigma)/[…] protein with protein A-agarose (Roche). […] Bound proteins were detected by chemiluminescence (ECL, Amersham). The blots were rehybrididized with an antipan-actin antibody for quantification (Millipore). […]

[3] = A31-treated Fgfr3^Y367C/+ growth plates

With `COc1cc(OC)cc(-c2cc3cnc(NCc4cn(CC5CCCN(C)C5)nn4)nc3nc2NC(=O)NC(C)(C)C)c1` (stereo not shown) [Compound A31] the “limb growth in Fgfr3^Y367C/+ femurs (in words)” value (Fgfr3^Y367C/+ femurs; A31 2 mM, 5 days) was “fully restore limb growth”, the “longitudinal bone growth (gain in femur length)” value (Fgfr3^Y367C/+ femurs; A31 2 mM, 5 days of culture, Fgfr3^Y367C/+ femurs) was 1880±558 μm and the “increase in length of treated mutant femurs relative to WT” value (Fgfr3^Y367C/+ femurs; A31, after 5 days of culture) was 2.6 times. The “longitudinal bone growth (gain in femur length)” value (WT femurs) was 1863±255 μm, the “size of the hypertrophic zone of the growth plate” value ([1]; A31, Fgfr3^Y367C/+ femur explants) was “marked expansion of the hypertrophic zone” and the “type X collagen expression (in situ hybridization)” value ([1]; A31, Fgfr3^Y367C/+ growth plates) was “enhanced type X collagen expression”. For the same compound, the chondrocyte morphology ([1]; A31, data not shown) was “enlarged and more spherical”, the “PCNA positive cells, hypertrophic (H) zone” value [2, 3] was 18% and the “PCNA positive cells, prehypertrophic (PH) zone” value [2, 3] was 20%. For the same compound, the “p57 protein expression in growth plate” value ([2]; A31, PH zone, data not shown) was “reduced expression of p57 protein”, the “KI67 expression in growth plates” value ([2]; A31, data not shown) was “decreased this expression” and the “cyclin D1 expression in mutant femurs (immunohistochemistry)” value ([2]; A31, data not shown) was “returned cyclin D1 expression to control levels”. The “cyclin D1 level (Western blot)” value (cyclin D1) was “reduced level of cyclin D1”.
